PMC5218480 (PLoS ONE, 2017)

Tested on: MV-4-11 cells
Assay: Gene expression microarray analysis (Affymetrix PrimeView) and GSEA
Format: cell-based, human
Design: RFU PODN (11730768_x_at) / Fold change /veh PODN (11730768_x_at) / RFU LINC00158 (11744669_a_at) / Fold change /veh LINC00158 (11744669_a_at) / RFU DUSP10 (11751237_a_at) / Fold change /veh DUSP10 (11751237_a_at) / RFU ID3 (11757404_x_at) / Fold change /veh ID3 (11757404_x_at) / RFU PLEKHG5 (11737974_s_at) / Fold change /veh PLEKHG5 (11737974_s_at) / RFU LRRC4B (11730491_at) / Fold change /veh LRRC4B (11730491_at) / RFU GIMAP4 (11747438_a_at) / Fold change /veh GIMAP4 (11747438_a_at) / RFU KRT8 (11758183_x_at) / Fold change /veh KRT8 (11758183_x_at) / RFU CNN1 (11734310_a_at) / Fold change /veh CNN1 (11734310_a_at) / RFU VPS37D (11726825_at) / Fold change /veh VPS37D (11726825_at) / RFU C10orf10 (11716522_x_at) / Fold change /veh C10orf10 (11716522_x_at) / RFU KIR2DL2 /// KIR2DL4 /// KIR2DL5A /// KIR2DL5B /// KIR2DS1 /// KIR2DS2 /// KIR2DS3 /// KIR2DS4 /// KIR3DL3 /// KIR3DL3 /// KIR3DS1 (11738374_at) / Fold change /veh KIR2DL2 /// KIR2DL4 /// KIR2DL5A /// KIR2DL5B /// KIR2DS1 /// KIR2DS2 /// KIR2DS3 /// KIR2DS4 /// KIR3DL3 /// KIR3DL3 /// KIR3DS1 (11738374_at) / RFU C1QL1 (11718748_at) / Fold change /veh C1QL1 (11718748_at) / RFU TMPRSS4 (11747572_a_at) / Fold change /veh TMPRSS4 (11747572_a_at) / RFU HAMP (11756126_x_at) / Fold change /veh HAMP (11756126_x_at) / RFU RNFT2 (11725882_a_at) / Fold change /veh RNFT2 (11725882_a_at) / RFU NR4A2 (11747474_a_at) / Fold change /veh NR4A2 (11747474_a_at) / RFU ABCC12 (11746883_a_at) / Fold change /veh ABCC12 (11746883_a_at) / RFU TMEM136 (11760407_x_at) / Fold change /veh TMEM136 (11760407_x_at) / RFU CLDN22 /// WWC2 (11732394_at) / Fold change /veh CLDN22 /// WWC2 (11732394_at) / RFU HLA-DPB1 (11760878_x_at) / Fold change /veh HLA-DPB1 (11760878_x_at) / RFU SPINT1 (11716480_a_at) / Fold change /veh SPINT1 (11716480_a_at) / RFU GAP43 (11754022_s_at) / Fold change /veh GAP43 (11754022_s_at) / RFU A4GNT (11735810_at) / Fold change /veh A4GNT (11735810_at) / RFU PRB3 (11715151_x_at) / Fold change /veh PRB3 (11715151_x_at) / RFU TUBB4B (11761932_at) / Fold change /veh TUBB4B (11761932_at) / RFU CAPN14 (11732068_a_at) / Fold change /veh CAPN14 (11732068_a_at) / RFU TMCC2 (11721928_a_at) / Fold change /veh TMCC2 (11721928_a_at) / RFU IRGQ (11745062_a_at) / Fold change /veh IRGQ (11745062_a_at) / RFU FAM174B (11720279_a_at) / Fold change /veh FAM174B (11720279_a_at) / RFU TMPRSS4 (11748680_a_at) / Fold change /veh TMPRSS4 (11748680_a_at) / RFU FAM212B (11763350_a_at) / Fold change /veh FAM212B (11763350_a_at) / RFU PLEKHG5 (11743358_a_at) / Fold change /veh PLEKHG5 (11743358_a_at) / RFU ZSCAN30 (11745921_a_at) / Fold change /veh ZSCAN30 (11745921_a_at) / RFU CMKLR1 (11741424_a_at) / Fold change /veh CMKLR1 (11741424_a_at) / RFU LOC101060620 /// MAPK8IP1 (11723275_at) / Fold change /veh LOC101060620 /// MAPK8IP1 (11723275_at) / RFU SPTSSB (11747773_x_at) / Fold change /veh SPTSSB (11747773_x_at) / RFU PRSS12 (11739890_at) / Fold change /veh PRSS12 (11739890_at) / RFU BIN1 (11741810_x_at) / Fold change /veh BIN1 (11741810_x_at) / RFU WNT11 (11732464_a_at) / Fold change /veh WNT11 (11732464_a_at) / RFU C10orf10 (11716521_a_at) / Fold change /veh C10orf10 (11716521_a_at) / RFU C5orf56 (11738089_at) / Fold change /veh C5orf56 (11738089_at) / RFU CYB561 (11721691_x_at) / Fold change /veh CYB561 (11721691_x_at) / RFU ANKRD19P (11752326_a_at) / Fold change /veh ANKRD19P (11752326_a_at) / RFU OR2T12 /// OR2T33 /// OR2T8 (11738714_s_at) / Fold change /veh OR2T12 /// OR2T33 /// OR2T8 (11738714_s_at) / RFU VCAN (11748164_a_at) / Fold change /veh VCAN (11748164_a_at) / RFU JSRP1 (11732532_at) / Fold change /veh JSRP1 (11732532_at) / RFU KRTAP10-11 (11738290_x_at) / Fold change /veh KRTAP10-11 (11738290_x_at) / RFU MYO3A (11730013_a_at) / Fold change /veh MYO3A (11730013_a_at) / RFU EBF3 (11725865_a_at) / Fold change /veh EBF3 (11725865_a_at) / RFU CAMK2N1 (11719241_x_at) / Fold change /veh CAMK2N1 (11719241_x_at) / RFU C5orf56 (11738088_a_at) / Fold change /veh C5orf56 (11738088_a_at) / RFU OLFML3 (11715873_a_at) / Fold change /veh OLFML3 (11715873_a_at) / RFU LOC100653217 /// NTM (11731650_a_at) / Fold change /veh LOC100653217 /// NTM (11731650_a_at) / RFU MAPK11 (11762145_a_at) / Fold change /veh MAPK11 (11762145_a_at) / RFU FIZ1 (11724087_x_at) / Fold change /veh FIZ1 (11724087_x_at) / RFU OASL (11726364_x_at) / Fold change /veh OASL (11726364_x_at) / RFU SOX15 (11748057_x_at) / Fold change /veh SOX15 (11748057_x_at) / RFU CD79A (11719716_a_at) / Fold change /veh CD79A (11719716_a_at) / RFU HIST1H1D (11736915_at) / Fold change /veh HIST1H1D (11736915_at) / RFU CASKIN2 (11723855_a_at) / Fold change /veh CASKIN2 (11723855_a_at) / RFU LOC730098 (11760151_x_at) / Fold change /veh LOC730098 (11760151_x_at) / RFU OR4N2 (11742367_at) / Fold change /veh OR4N2 (11742367_at) / RFU PRRT2 (11749266_a_at) / Fold change /veh PRRT2 (11749266_a_at) / RFU SNX32 (11753110_a_at) / Fold change /veh SNX32 (11753110_a_at) / RFU CDHR5 (11726645_a_at) / Fold change /veh CDHR5 (11726645_a_at) / RFU RCAN1 (11760418_a_at) / Fold change /veh RCAN1 (11760418_a_at) / RFU FAM167A (11723789_a_at) / Fold change /veh FAM167A (11723789_a_at) / RFU FAM26E (11764081_at) / Fold change /veh FAM26E (11764081_at) / RFU ISYNA1 (11749810_s_at) / Fold change /veh ISYNA1 (11749810_s_at) / RFU ACY1 (11761880_at) / Fold change /veh ACY1 (11761880_at) / RFU 11764098_at / Fold change /veh 11764098_at / RFU SAMD14 (11745864_x_at) / Fold change /veh SAMD14 (11745864_x_at) / RFU NPB (11741838_a_at) / Fold change /veh NPB (11741838_a_at) / RFU TMPRSS6 (11731388_a_at) / Fold change /veh TMPRSS6 (11731388_a_at) / RFU KRTAP10-2 (11738614_at) / Fold change /veh KRTAP10-2 (11738614_at) / RFU ARHGAP8 /// PRR5-ARHGAP8 (11727945_x_at) / Fold change /veh ARHGAP8 /// PRR5-ARHGAP8 (11727945_x_at) / RFU KRTAP5-7 /// NADSYN1 (11734609_at) / Fold change /veh KRTAP5-7 /// NADSYN1 (11734609_at) / RFU RASL12 (11751679_a_at) / Fold change /veh RASL12 (11751679_a_at) / RFU CDKN2B (11736163_a_at) / Fold change /veh CDKN2B (11736163_a_at) / RFU PRF1 (11729649_at) / Fold change /veh PRF1 (11729649_at) / RFU, ZNF638 /// ZNF638-IT1 / Fold change vs veh, ZNF638 /// ZNF638-IT1 / RFU, PANK3 / Fold change vs veh, PANK3 / RFU, SH3YL1 / Fold change vs veh, SH3YL1 / RFU, ZEB2 / Fold change vs veh, ZEB2 / RFU, NRIP1 / Fold change vs veh, NRIP1 / RFU, PTTG1IP / Fold change vs veh, PTTG1IP / RFU, CAPN2 / Fold change vs veh, CAPN2 / RFU, MED14 / Fold change vs veh, MED14 / RFU, SNORA58 / Fold change vs veh, SNORA58 / RFU, C1orf63 / Fold change vs veh, C1orf63 / RFU, LRRFIP1 / Fold change vs veh, LRRFIP1 / RFU, NDUFAF7 / Fold change vs veh, NDUFAF7 / RFU, SLC12A2 / Fold change vs veh, SLC12A2 / RFU, IBTK / Fold change vs veh, IBTK / RFU, ESF1 / Fold change vs veh, ESF1 / Fold change vs veh, TMEM50B / RFU, TAOK1 / Fold change vs veh, TAOK1 / RFU, ACBD3 / Fold change vs veh, ACBD3 / RFU, TMA16 / Fold change vs veh, TMA16 / RFU, RWDD3 / Fold change vs veh, RWDD3 / RFU, BCAT1 / Fold change vs veh, BCAT1 / RFU, EDEM3 / Fold change vs veh, EDEM3 / RFU, TMEM33 / Fold change vs veh, TMEM33 / RFU, WDR75 / Fold change vs veh, WDR75 / RFU, AHCTF1 / Fold change vs veh, AHCTF1 / RFU, TFRC / Fold change vs veh, TFRC / RFU, ZDHHC17 / Fold change vs veh, ZDHHC17 / RFU, NOM1 / Fold change vs veh, NOM1 / RFU, ARL8B / Fold change vs veh, ARL8B / RFU, ZBTB11 / Fold change vs veh, ZBTB11 / RFU, TAMM41 / Fold change vs veh, TAMM41 / RFU, KIAA1704 /// LOC100996395 / Fold change vs veh, KIAA1704 /// LOC100996395 / RFU, ING1 / Fold change vs veh, ING1 / RFU, TRMT61B / Fold change vs veh, TRMT61B / RFU, FUBP3 / Fold change vs veh, FUBP3 / RFU, TP53 / Fold change vs veh, TP53 / RFU, TNKS2 / Fold change vs veh, TNKS2 / RFU, ZFP14 / Fold change vs veh, ZFP14 / RFU, ACTR2 / Fold change vs veh, ACTR2 / RFU, PPP3R1 / Fold change vs veh, PPP3R1 / RFU, PIK3R1 / Fold change vs veh, PIK3R1 / RFU, HNRNPA1 / Fold change vs veh, HNRNPA1 / RFU, RNF170 / Fold change vs veh, RNF170 / RFU, ZNF28 / Fold change vs veh, ZNF28 / RFU, RNGTT / Fold change vs veh, RNGTT / RFU, OGT / Fold change vs veh, OGT / RFU, BRD1 / Fold change vs veh, BRD1 / RFU, MARS / Fold change vs veh, MARS / RFU, ZNF655 / Fold change vs veh, ZNF655 / RFU, FAHD1 / Fold change vs veh, FAHD1 / RFU, BDP1 / Fold change vs veh, BDP1 / RFU, LRRCC1 / Fold change vs veh, LRRCC1 / RFU, ARID1A / Fold change vs veh, ARID1A / RFU, ZNF146 / Fold change vs veh, ZNF146 / RFU, ZNF330 / Fold change vs veh, ZNF330 / RFU, GPN3 / Fold change vs veh, GPN3 / RFU, C9orf123 / Fold change vs veh, C9orf123 / RFU, N4BP2L2 / Fold change vs veh, N4BP2L2 / RFU, ARFIP1 / Fold change vs veh, ARFIP1 / RFU, FAM179B / Fold change vs veh, FAM179B / RFU, BCL10 / Fold change vs veh, BCL10 / RFU, UHRF1BP1L / Fold change vs veh, UHRF1BP1L / RFU, BET1 / Fold change vs veh, BET1 / RFU, CNOT2 / Fold change vs veh, CNOT2 / RFU, ZNF268 / Fold change vs veh, ZNF268 / Fold change vs veh, ZNF507 / RFU, DGCR2 / Fold change vs veh, DGCR2 / RFU, WDSUB1 / Fold change vs veh, WDSUB1 / Fold change vs veh, HSP90B1 /// MIR3652 / RFU, ADSS / Fold change vs veh, ADSS / RFU, GK / Fold change vs veh, GK / RFU, ZNF148 / Fold change vs veh, ZNF148 / RFU, TAF9 / Fold change vs veh, TAF9 / RFU, SLC1A5 / Fold change vs veh, SLC1A5 / RFU, SLMO2 / Fold change vs veh, SLMO2 / RFU, ABCC4 / Fold change vs veh, ABCC4 / RFU, LOC101060439 /// RAP1B / Fold change vs veh, LOC101060439 /// RAP1B / RFU, RFX7 / Fold change vs veh, RFX7 / RFU, GTPBP10 / Fold change vs veh, GTPBP10 / RFU, CNEP1R1 / Fold change vs veh, CNEP1R1 / RFU, BIVM-ERCC5 /// ERCC5 / Fold change vs veh, BIVM-ERCC5 /// ERCC5 / RFU, ILF3 / Fold change vs veh, ILF3 / RFU 11762660_at / Fold change /veh 11762660_at / RFU VCAN (11757783_s_at) / Fold change /veh VCAN (11757783_s_at) / RFU DDX43 (11728927_at) / Fold change /veh DDX43 (11728927_at) / RFU KRT8 (11758188_x_at) / Fold change /veh KRT8 (11758188_x_at) / RFU NKD1 (11759106_at) / Fold change /veh NKD1 (11759106_at) / RFU SRD5A1 (11742802_a_at) / Fold change /veh SRD5A1 (11742802_a_at) / RFU TPSAB1 /// TPSB2 (11721975_s_at) / Fold change /veh TPSAB1 /// TPSB2 (11721975_s_at) / RFU GSTM3 (11746129_a_at) / Fold change /veh GSTM3 (11746129_a_at) / RFU IL23R (11737362_x_at) / Fold change /veh IL23R (11737362_x_at) / RFU TMEM51 (11727254_a_at) / Fold change /veh TMEM51 (11727254_a_at) / RFU PIWIL2 (11732686_x_at) / Fold change /veh PIWIL2 (11732686_x_at) / RFU ORM1 (11744905_x_at) / Fold change /veh ORM1 (11744905_x_at) / RFU CCDC152 (11743942_at) / Fold change /veh CCDC152 (11743942_at) / RFU ECM1 (11717891_a_at) / Fold change /veh ECM1 (11717891_a_at) / RFU IL23R (11748794_a_at) / Fold change /veh IL23R (11748794_a_at) / RFU TNFAIP8L3 (11732012_x_at) / Fold change /veh TNFAIP8L3 (11732012_x_at) / RFU MBOAT4 (11741988_at) / Fold change /veh MBOAT4 (11741988_at) / RFU 11764193_at / Fold change /veh 11764193_at / RFU TMEM53 (11763286_at) / Fold change /veh TMEM53 (11763286_at) / RFU MAGEB2 (11727129_at) / Fold change /veh MAGEB2 (11727129_at) / RFU TMEM200A (11744735_a_at) / Fold change /veh TMEM200A (11744735_a_at) / RFU CCDC152 (11751479_a_at) / Fold change /veh CCDC152 (11751479_a_at) / RFU FAM211A (11726209_a_at) / Fold change /veh FAM211A (11726209_a_at) / RFU RGS16 (11746705_a_at) / Fold change /veh RGS16 (11746705_a_at) / RFU VCAN (11755009_s_at) / Fold change /veh VCAN (11755009_s_at) / RFU RHOB (11743442_s_at) / Fold change /veh RHOB (11743442_s_at) / RFU RGS16 (11720943_a_at) / Fold change /veh RGS16 (11720943_a_at) / RFU RGS16 (11720944_at) / Fold change /veh RGS16 (11720944_at) / RFU, VPS4B / Fold change vs veh, VPS4B / RFU, CREB1 / Fold change vs veh, CREB1 / RFU, DNAJC13 / Fold change vs veh, DNAJC13 / RFU, GNAQ / Fold change vs veh, GNAQ / RFU, CDK5R1 / Fold change vs veh, CDK5R1 / RFU, ZRANB3 / Fold change vs veh, ZRANB3 / RFU, CUL4A / Fold change vs veh, CUL4A / RFU, CCNY / Fold change vs veh, CCNY / RFU, UFL1 / Fold change vs veh, UFL1 / RFU, COG3 / Fold change vs veh, COG3 / RFU, DIAPH2 / Fold change vs veh, DIAPH2 / RFU, SKA2 / Fold change vs veh, SKA2 / RFU, AFF3 / Fold change vs veh, AFF3 / RFU, LMF1 / Fold change vs veh, LMF1 / RFU, IPO11 / Fold change vs veh, IPO11 / RFU, DFFB / Fold change vs veh, DFFB / RFU, FOXP1 / Fold change vs veh, FOXP1 / RFU, CARD8 / Fold change vs veh, CARD8 / RFU, STRN3 / Fold change vs veh, STRN3 / RFU, ADK / Fold change vs veh, ADK / RFU, RASSF2 / Fold change vs veh, RASSF2 / RFU, WIPF1 / Fold change vs veh, WIPF1 / RFU, LARP1B / Fold change vs veh, LARP1B / RFU, RASA1 / Fold change vs veh, RASA1 / RFU, RB1 / Fold change vs veh, RB1 / RFU, PPFIA1 / Fold change vs veh, PPFIA1 / RFU, MAT2A / Fold change vs veh, MAT2A / RFU, CCT5 / Fold change vs veh, CCT5 / RFU, WDR92 / Fold change vs veh, WDR92 / RFU, CUX1 / Fold change vs veh, CUX1 / RFU, TTC7A / Fold change vs veh, TTC7A / RFU, TMEM135 / Fold change vs veh, TMEM135 / RFU, DEPTOR / Fold change vs veh, DEPTOR / RFU, CPM / Fold change vs veh, CPM / RFU, DNAJB6 / Fold change vs veh, DNAJB6 / RFU, CACNA2D3 / Fold change vs veh, CACNA2D3 / RFU, DTX4 / Fold change vs veh, DTX4 / RFU, TFCP2 / Fold change vs veh, TFCP2 / RFU, GMCL1 /// GMCL1P1 / Fold change vs veh, GMCL1 /// GMCL1P1 / RFU, AEBP2 / Fold change vs veh, AEBP2 / RFU, SNHG1 /// SNORD22 /// SNORD25 /// SNORD26 /// SNORD27 /// SNORD28 /// SNORD29 /// SNORD31 / Fold change vs veh, SNHG1 /// SNORD22 /// SNORD25 /// SNORD26 /// SNORD27 /// SNORD28 /// SNORD29 /// SNORD31 / Fold change (Aza/veh), C12orf56 (ProbeSet 11735607_a_at) / Fold change (ACY-1035/veh), C12orf56 (ProbeSet 11735607_a_at) / Fold change (Aza/veh), FGFR1OP (ProbeSet 11751329_s_at) / Fold change (ACY-1035/veh), FGFR1OP (ProbeSet 11751329_s_at) / Fold change (Aza/veh), VPS36 (ProbeSet 11739960_a_at) / Fold change (ACY-1035/veh), VPS36 (ProbeSet 11739960_a_at) / RFU SYPL1 (11715823_x_at) / Fold change /veh SYPL1 (11715823_x_at) / RFU IGFBP7 (11715501_s_at) / Fold change /veh IGFBP7 (11715501_s_at) / RFU REEP3 (11722064_at) / Fold change /veh REEP3 (11722064_at) / RFU IGLL1 (11728026_x_at) / Fold change /veh IGLL1 (11728026_x_at): dose or concentration left out as unconfirmed
Settings: ProbeSet 11716931_at; LIST B

For `Nc1ccc(-c2cccs2)cc1NC(=O)c1ccc2c(c1)cc(C1CC1)n2CCN1CCOCC1` [ACY-1035], the “Fold change vs veh, DGCR2” value was 1.13.
